Ten compounds from EP4786487A1, “PEPTIDE” (Peptidream Inc, priority 2023, dated 2025) can be followed below.

Format in all cases: cell-based
Assay [1] concerns the target T1, Myostatin (Homo sapiens, UniProt O14793).
T1 construct: active myostatin (also called mature myostatin) is a homodimer consisting of two C-terminal growth factor domains; purchased R&D systems 788-G8/CF
T1 sequence (O14793 267-375): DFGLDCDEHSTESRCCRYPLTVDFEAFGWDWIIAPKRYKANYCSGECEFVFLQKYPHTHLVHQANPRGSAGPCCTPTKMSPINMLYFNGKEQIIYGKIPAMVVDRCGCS
Kind of assay: Reporter gene assay for myostatin signaling in HepG2 cell line, Evaluation Procedure (1), myostatin inhibition. The conditions noted are these: Method A: Myostatin 10 ng/mL; read-out: IC50 (Luciferase) Myostatin HepG2. A digest of the protocol:
(§1)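 IC50 derived from One-Glo luciferase luminescence after 20–24 h at 37 °C. Peptides titrated 4-fold at 0.006–100 nmol/L against myostatin or 0.12–2000 nmol/L against GDF-11 in HepG2 cells carrying a transfected CAGA12-luciferase reporter, kept in 0.1% BSA EMEM.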

For assay [2], the system named is Myostatin. The description is as above. The note with it: Method A; GDF-11 IC50 versus Myostatin IC50. A digest of the protocol:
as §1

For the next assay, the target named is T2, GDF-11 (Homo sapiens, UniProt O95390).
T2 construct: purchased R&D systems 1958-GD-G8/CF
T2 sequence (O95390 299-407): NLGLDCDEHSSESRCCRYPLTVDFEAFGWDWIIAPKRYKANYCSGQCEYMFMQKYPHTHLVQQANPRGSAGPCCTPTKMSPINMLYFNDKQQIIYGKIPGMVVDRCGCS
Kind of assay: Reporter gene assay for myostatin signaling in HepG2 cell line, Evaluation Procedure (1), GDF-11 inhibition. The conditions noted are these: Method A: GDF-11 10 ng/mL; read-out: IC50 (Luciferase) GDF-11 HepG2. A digest of the protocol:
as §1

SMILES strings stand for the structures. Positions of bridges follow the written chain, without caps; N, C: chain ends. Non-standard residues stand in square brackets, D forms with d. Residues, ends and D or L forms follow the SMILES beside them. *: point of attachment. Phe(4-(4-pyridyl)) = N[C@@H](Cc1ccc(-c2ccncc2)cc1)C(=O)O; Phe(3-OCH2COOH) = N[C@@H](Cc1cccc(OCC(=O)O)c1)C(=O)O; Phe(4-COOH) = N[C@@H](Cc1ccc(C(=O)O)cc1)C(=O)O; Trp(7-aza) = N[C@@H](Cc1c[nH]c2ncccc12)C(=O)O; Bip = N[C@@H](Cc1ccc(-c2ccccc2)cc1)C(=O)O; Gly(Nα-CH2CH2CONH2) = NC(=O)CCNCC(=O)O; Gly(N(CH2)3COOH) = O=C(O)CCCNCC(=O)O; NMeF = CN[C@@H](Cc1ccccc1)C(=O)O; NMeD = CN[C@@H](CC(=O)O)C(=O)O; Carboxymethyl = O=C(O)C*; NMeA = CN[C@@H](C)C(=O)O; Sar = CNCC(=O)O

Consider `CC[C@H](C)[C@@H]1NC(=O)[C@H](Cc2ccccc2)N(C)C(=O)[C@H](Cc2ccc(O)cc2)NC(=O)[C@H](Cc2c[nH]c3ncccc23)NC(=O)[C@H](C)NC(=O)CN(CCC(N)=O)C(=O)CSC[C@H](C(=O)O)NC(=O)[C@H](Cc2ccccc2)N(C)C(=O)[C@H](C)N(C)C(=O)[C@H](CC(C)C)NC(=O)[C@H](Cc2ccccc2)N(C)C(=O)[C@H](CCCNC(=N)N)NC(=O)[C@H](Cc2ccc(C(=O)O)cc2)NC(=O)[C@H](Cc2ccccc2)NC(=O)CN(C)C1=O` [Myostatin_99_v46] ({CH2CO}-[Gly(Nα-CH2CH2CONH2)]A[Trp(7-aza)]Y[NMeF]I[Sar]F[Phe(4-COOH)]R[NMeF]L[NMeA][NMeF][dC]-OH; thioether N-15), for which the IC50 on Myostatin [1] worked out at 0.0432 µM; at GDF-11 it was 1.54 µM. Also, the Selectivity in the assay with Myostatin [2] was 36.
The like results for `CC[C@H](C)[C@@H]1NC(=O)[C@H](Cc2ccccc2)N(C)C(=O)[C@H](Cc2ccc(O)cc2)NC(=O)[C@H](Cc2ccc(-c3ccncc3)cc2)NC(=O)[C@H](C)NC(=O)CN(CCCC(=O)O)C(=O)CSC[C@H](C(=O)O)NC(=O)[C@H](Cc2ccccc2)N(C)C(=O)[C@H](C)N(C)C(=O)[C@H](CC(C)C)NC(=O)[C@H](Cc2ccccc2)N(C)C(=O)[C@H](CCCNC(=N)N)NC(=O)[C@H](Cc2ccc(OCC(=O)O)cc2)NC(=O)[C@H](Cc2cccc(OCC(=O)O)c2)NC(=O)[C@H](C)N(C)C1=O` [Myostatin_99_v83] ({CH2CO}-[Gly(N(CH2)3COOH)]A[Phe(4-(4-pyridyl))]Y[NMeF]I[NMeA][Phe(3-OCH2COOH)]Y(Carboxymethyl)R[NMeF]L[NMeA][NMeF][dC]-OH; thioether N-15) were, in that order, 0.0209 µM, 3.01 µM and 144.
For `CC[C@H](C)[C@@H]1NC(=O)[C@H](Cc2ccccc2)N(C)C(=O)[C@H](Cc2ccc(O)cc2)NC(=O)[C@H](Cc2ccc(-c3ccncc3)cc2)NC(=O)[C@H](C)NC(=O)CN(CCCC(=O)O)C(=O)CSC[C@H](C(=O)O)NC(=O)[C@H](Cc2ccccc2)N(C)C(=O)[C@H](C)N(C)C(=O)[C@H](CC(C)C)NC(=O)[C@H](Cc2ccccc2)N(C)C(=O)[C@H](CCCNC(=N)N)NC(=O)[C@H](Cc2ccc(OCC(=O)O)cc2)NC(=O)[C@H](Cc2cccc(OCC(=O)O)c2)NC(=O)CN(C)C1=O` [Myostatin_99_v84] ({CH2CO}-[Gly(N(CH2)3COOH)]A[Phe(4-(4-pyridyl))]Y[NMeF]I[Sar][Phe(3-OCH2COOH)]Y(Carboxymethyl)R[NMeF]L[NMeA][NMeF][dC]-OH; thioether N-15), in that order: 0.0273 µM, 3.05 µM and 112.
In the case of `CC[C@H](C)[C@@H]1NC(=O)[C@H](Cc2ccccc2)N(C)C(=O)[C@H](Cc2ccc(O)cc2)NC(=O)[C@H](Cc2ccc(-c3ccccc3)cc2)NC(=O)[C@H](C)NC(=O)CN(CCCC(=O)O)C(=O)CSC[C@H](C(=O)O)NC(=O)[C@H](Cc2ccccc2)N(C)C(=O)[C@H](C)N(C)C(=O)[C@H](CC(C)C)NC(=O)[C@H](Cc2ccccc2)N(C)C(=O)[C@H](CCCNC(=N)N)NC(=O)[C@H](Cc2ccc(OCC(=O)O)cc2)NC(=O)[C@H](Cc2cccc(OCC(=O)O)c2)NC(=O)[C@H](C)N(C)C1=O` [Myostatin_99_v85] ({CH2CO}-[Gly(N(CH2)3COOH)]A[Bip]Y[NMeF]I[NMeA][Phe(3-OCH2COOH)]Y(Carboxymethyl)R[NMeF]L[NMeA][NMeF][dC]-OH; thioether N-15), the IC50 on Myostatin [1] was 0.0135 µM; on GDF-11, 3.37 µM. For the same compound, the Selectivity in the assay with Myostatin [2] was 250.
The like results for `CC[C@H](C)[C@@H]1NC(=O)[C@H](Cc2ccccc2)N(C)C(=O)[C@H](Cc2ccc(O)cc2)NC(=O)[C@H](Cc2ccc(-c3ccccc3)cc2)NC(=O)[C@H](C)NC(=O)CN(CCCC(=O)O)C(=O)CSC[C@H](C(=O)O)NC(=O)[C@H](Cc2ccccc2)N(C)C(=O)[C@H](C)N(C)C(=O)[C@H](CC(C)C)NC(=O)[C@H](Cc2ccccc2)N(C)C(=O)[C@H](CCCNC(=N)N)NC(=O)[C@H](Cc2ccc(OCC(=O)O)cc2)NC(=O)[C@H](Cc2cccc(OCC(=O)O)c2)NC(=O)CN(C)C1=O` [Myostatin_99_v86] ({CH2CO}-[Gly(N(CH2)3COOH)]A[Bip]Y[NMeF]I[Sar][Phe(3-OCH2COOH)]Y(Carboxymethyl)R[NMeF]L[NMeA][NMeF][dC]-OH; thioether N-15) were, in that order, 0.0104 µM, 1.65 µM and 159.
For `CC[C@H](C)[C@@H]1NC(=O)[C@H](Cc2ccccc2)N(C)C(=O)[C@H](Cc2ccc(O)cc2)NC(=O)[C@H](Cc2ccc(-c3ccncc3)cc2)NC(=O)CNC(=O)CN(CCCC(=O)O)C(=O)CSC[C@H](C(=O)O)NC(=O)[C@H](Cc2ccccc2)N(C)C(=O)[C@H](C)N(C)C(=O)[C@H](CC(C)C)NC(=O)[C@H](Cc2ccccc2)N(C)C(=O)[C@H](CCCNC(=N)N)NC(=O)[C@H](Cc2ccc(OCC(=O)O)cc2)NC(=O)[C@H](Cc2cccc(OCC(=O)O)c2)NC(=O)[C@H](C)N(C)C1=O` [Myostatin_99_v91] ({CH2CO}-[Gly(N(CH2)3COOH)]G[Phe(4-(4-pyridyl))]Y[NMeF]I[NMeA][Phe(3-OCH2COOH)]Y(Carboxymethyl)R[NMeF]L[NMeA][NMeF][dC]-OH; thioether N-15), the 50% inhibitory concentration (IC50) at Myostatin [1] turned out to be 0.0723 µM; on GDF-11, 7.38 µM. The Selectivity with Myostatin [2] is on record as 102.
In the case of `CC[C@H](C)[C@@H]1NC(=O)[C@H](Cc2ccccc2)N(C)C(=O)[C@H](Cc2ccc(O)cc2)NC(=O)[C@H](Cc2ccc(-c3ccncc3)cc2)NC(=O)CNC(=O)CN(CCCC(=O)O)C(=O)CSC[C@H](C(=O)O)NC(=O)[C@H](Cc2ccccc2)N(C)C(=O)[C@H](C)N(C)C(=O)[C@H](CC(C)C)NC(=O)[C@H](Cc2ccccc2)N(C)C(=O)[C@H](CCCNC(=N)N)NC(=O)[C@H](Cc2ccc(OCC(=O)O)cc2)NC(=O)[C@H](Cc2cccc(OCC(=O)O)c2)NC(=O)CN(C)C1=O` [Myostatin_99_v92] ({CH2CO}-[Gly(N(CH2)3COOH)]G[Phe(4-(4-pyridyl))]Y[NMeF]I[Sar][Phe(3-OCH2COOH)]Y(Carboxymethyl)R[NMeF]L[NMeA][NMeF][dC]-OH; thioether N-15), the IC50 came to 0.0781 µM on Myostatin [1] and 3.88 µM at GDF-11. In addition, in the assay on Myostatin [2], the Selectivity was found to be 50.
The like results for `CC[C@H](C)[C@@H]1NC(=O)[C@H](Cc2ccccc2)N(C)C(=O)[C@H](Cc2ccc(O)cc2)NC(=O)[C@H](Cc2ccc(-c3ccncc3)cc2)NC(=O)[C@H](C)NC(=O)[C@H](CC(=O)O)N(C)C(=O)CSC[C@H](C(=O)O)NC(=O)[C@H](Cc2ccccc2)N(C)C(=O)[C@H](C)N(C)C(=O)[C@H](CC(C)C)NC(=O)[C@H](Cc2ccccc2)N(C)C(=O)[C@H](CCCNC(=N)N)NC(=O)[C@H](Cc2ccc(OCC(=O)O)cc2)NC(=O)[C@H](Cc2cccc(OCC(=O)O)c2)NC(=O)CN(C)C1=O` [Myostatin_99_v96] ({CH2CO}-[NMeD]A[Phe(4-(4-pyridyl))]Y[NMeF]I[Sar][Phe(3-OCH2COOH)]Y(Carboxymethyl)R[NMeF]L[NMeA][NMeF][dC]-OH; thioether N-15) were, in that order, 0.0888 µM, 26.3 µM and 296.
As for `CC[C@H](C)[C@@H]1NC(=O)[C@H](Cc2ccccc2)N(C)C(=O)[C@H](Cc2ccc(O)cc2)NC(=O)[C@H](Cc2ccc(-c3ccncc3)cc2)NC(=O)[C@H](C)NC(=O)[C@H](C)NC(=O)CSC[C@H](C(=O)O)NC(=O)[C@H](Cc2ccccc2)N(C)C(=O)[C@H](C)N(C)C(=O)[C@H](CC(C)C)NC(=O)[C@H](Cc2ccccc2)N(C)C(=O)[C@H](CCCNC(=N)N)NC(=O)[C@H](Cc2ccc(OCC(=O)O)cc2)NC(=O)[C@H](Cc2cccc(OCC(=O)O)c2)NC(=O)CN(C)C1=O` [Myostatin_99_v107] ({CH2CO}-AA[Phe(4-(4-pyridyl))]Y[NMeF]I[Sar][Phe(3-OCH2COOH)]Y(Carboxymethyl)R[NMeF]L[NMeA][NMeF][dC]-OH; thioether N-15), the IC50 on Myostatin [1] amounted to 0.0028 µM; at GDF-11 it was 0.466 µM. In the assay on Myostatin [2], this compound returned a Selectivity of 166.
The like results for `CC[C@H](C)[C@@H]1NC(=O)[C@H](Cc2ccccc2)N(C)C(=O)[C@H](Cc2ccc(O)cc2)NC(=O)[C@H](Cc2ccc(-c3ccccc3)cc2)NC(=O)[C@H](C)NC(=O)[C@H](C)NC(=O)CSC[C@H](C(=O)O)NC(=O)[C@H](Cc2ccccc2)N(C)C(=O)[C@H](C)N(C)C(=O)[C@H](CC(C)C)NC(=O)[C@H](Cc2ccccc2)N(C)C(=O)[C@H](CCCNC(=N)N)NC(=O)[C@H](Cc2ccc(OCC(=O)O)cc2)NC(=O)[C@H](Cc2cccc(OCC(=O)O)c2)NC(=O)CN(C)C1=O` [Myostatin_99_v108] ({CH2CO}-AA[Bip]Y[NMeF]I[Sar][Phe(3-OCH2COOH)]Y(Carboxymethyl)R[NMeF]L[NMeA][NMeF][dC]-OH; thioether N-15) were, in that order, 0.0036 µM, 0.374 µM and 104.
